In patent US20040241708A1, “Recombinant vector for transforming strain to detect benzoic acid and derivatives thereof, transformant containing the recombinant vector, and method for detecting benzoic acid and derivatives thereof using the transformant” (priority 2003, published 2004):

System: transformant EBNAG1 (E. coli RFM443/pNAG1, nagR-PnagG::luxCDABE)
Test: Detectability of transformant EBNAG1 on benzoic acid and derivatives (bioluminescence response)
Assay type: cell-based, Escherichia coli
Details: for minimal effective concentration: Escherichia coli, read-out: MDC (Minimum detection concentration); for bioluminescence intensity: EBNAG1, 0.1953125-12.5 mM, 3 hours after seeding, FIGS. 3a and 3b
Description: The EBNAG1 strain was cultivated in a 100 ml LB medium supplemented with 50 μg/ml ampicillin at 30° C. until the absorbance reached 0.08 (at 600 nm). 100 μl of aliquot was taken from the culture for the measurement of the bioluminescence intensity, and was then poured on each well of an opaque96-well plate [Microlite™, Thermo Labsystems, USA] containing chemicals to be tested (benzoic acid concentrations: 12.5, 6.25, 3.125, 1.5625, 0.78125, 0.390625 and 0.1953125 mM, and salicylic acid concentrations: 12.5, 6.25, 3.125, 1.5625, 0.78125, 0.390625 and 0.1953125 mM). The well plates were placed in a 96-well microtiter plate reader (MLX Microtiter® Plate Luminometer, DYNEX Technology, USA) to measure the bioluminescence intensity.
FIGS. 3a and 3b show the results of bioluminescent signals obtained from EBNAG1 after seeding benzoic acid and salicylic acid as a representative benzoic acid derivative at various concentrations, respectively.

| SMILES | minimal effective concentration [µM] | bioluminescence intensity |
| --- | --- | --- |
| COc1ccc(CO)cc1OC [3,4-Dimethoxybenzylalcohol] | 390 |  |
| O=C(O)c1ccc(Cl)cc1O [4-Chlorosalicylic acid] | < 390 |  |
| O=C(O)c1ccc(O)c(O)c1 [3,4-Dihydroxybenzoic acid] | 6250 |  |
| O=C(O)c1ccccc1O [Salicylic acid] | 195 | increased in proportion to the salicylic acid concentrations |
| O=C(O)c1cc(O)cc(O)c1 [3,5-Dihydroxybenzoic acid] | 3130 |  |
| O=C(O)c1ccccc1 [Benzoic acid] | 390 | increased in proportion to the benzoic acid concentrations |
| O=C(O)c1cc(Cl)ccc1O [5-Chlorosalicylic acid] | 390 |  |
| O=C(O)c1ccc(O)cc1O [2,4-Dihydroxybenzoic acid] | 3130 |  |
